Results: patent US9145415B2, “Nitrogen-containing heterocyclic compound or salt thereof” (FUJIFILM Corporation, priority 2012, dated 2015)

Columns and labels:
[1] = target: T1, human FLT3 protein (FLT3 (WT)) (Homo sapiens, UniProt P36888); assay: FLT3 inhibition test (FLT3 enzyme inhibition, time-resolved fluorescence of substrate peptide phosphorylation); type: biochemical; conditions: GST-fused human FLT3 (564 to 993 aa), ATP 50 μM; read-out: FLT3 (WT) enzyme inhibition activity
T1 construct: human FLT3 protein (intracellular region, 564 to 993 aa); GST; purchased Carna Biosciences; host or cells: baculovirus expression system
T1 sequence (P36888 564-993): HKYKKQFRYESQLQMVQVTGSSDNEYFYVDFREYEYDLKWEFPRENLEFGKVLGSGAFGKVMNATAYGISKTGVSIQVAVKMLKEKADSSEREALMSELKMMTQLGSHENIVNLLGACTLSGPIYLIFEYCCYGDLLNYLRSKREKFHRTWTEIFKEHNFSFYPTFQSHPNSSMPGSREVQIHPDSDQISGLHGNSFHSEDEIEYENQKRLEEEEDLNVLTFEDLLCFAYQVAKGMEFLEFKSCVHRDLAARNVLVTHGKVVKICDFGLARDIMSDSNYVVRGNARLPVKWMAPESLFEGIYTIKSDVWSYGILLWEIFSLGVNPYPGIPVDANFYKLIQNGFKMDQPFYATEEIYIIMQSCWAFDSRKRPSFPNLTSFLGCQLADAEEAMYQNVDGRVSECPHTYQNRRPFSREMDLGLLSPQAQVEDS
In short: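 Wild-type human FLT3 (1.2 μg) pre-incubated with compound 15 min at 25° C in 100 mM HEPES pH 7.5, 10 mM MgCl2, 25 mM NaCl, 1 mM DTT. Reaction started with substrate peptide and ATP (final 50 μM), run 30 min at 25° C; phosphorylation read by time-resolved fluorescence.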

MV4-11 cells = assay: Leukemia cell proliferation inhibition test (ATPlite), MV4-11; type: cell-based; conditions: Homo sapiens, MV4-11, 72 h, MV4-11, 72 hours culture, ATPlite; GI50 per method; read-out: MV4-11 cell proliferation inhibition effect
In short: (§1)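 72 h proliferation, 37° C/5% CO2; 10,000 cells/well, RPMI/10% FBS; ATPlite luminescence (RLU); 0.1% DMSO taken as 0% inhibition; GI50 via sigmoid fit, n=2.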

Molm-13 cells = assay: Leukemia cell proliferation inhibition test (ATPlite), Molm-13; type: cell-based; conditions: Homo sapiens, MOLM-13, 72 h, Molm-13, 72 hours culture, ATPlite; GI50 per method; read-out: MOLM13 cell proliferation inhibition effect
In short: as §1

Row | Structure (SMILES) | IC50 [1] [nM] | IC50 (MV4-11 cells) [nM] | IC50 (Molm-13 cells) [nM]
1 | CCCN(C)c1nc(NCCc2ccncc2)ncc1C#Cc1cccc(NC(=O)[C@H](C)N(C)C(=O)/C=C/CN(C)C)c1 [Compound 12-14, (S,E)-4-(dimethylamino)-N-methyl-N-(1-((3-((4-(methyl(propyl)amino)-2-((2-(pyridin-4-yl)ethyl)amino)pyrimidin-5-yl)ethynyl)phenyl)amino)-1-oxopropan-2-yl)-2-butenamide] | < 10 | < 10 | < 10
2 | CCCNc1nc(Nc2cccc(F)c2)ncc1C#C[C@@H]1CCC[C@H](NC(=O)[C@H](C)N(C)C(=O)/C=C/CN(C)C)C1 [Compound 13-1, (E)-4-(dimethylamino)-N—((S)-1-(((1S,3R)-3-((2-((3-fluorophenyl)amino)-4-(propylamino)pyrimidin-5-yl)ethynyl)cyclohexyl)amino)-1-oxopropan-2-yl)-N-methyl-2-butenamide] | < 10 | < 10 | < 10
3 | CCCNc1nc(Nc2ccc(C#N)cc2)ncc1C#C[C@H]1CCC[C@@H](NC(=O)[C@H](C)N(C)C(=O)/C=C/CN(C)C)C1 [Compound 13-3] | < 10 | < 10 | 10 to 100
4 | CCCNc1nc(Nc2ccc(C#N)cc2)ncc1C#C[C@@H]1CCC[C@H](NC(=O)[C@H](C)N(C)C(=O)/C=C/CN(C)C)C1 [Compound 13-4] | < 10 | < 10 | < 10
5 | CCCNc1nc(Nc2ccc(F)nc2)ncc1C#C[C@@H]1CCC[C@H](NC(=O)[C@H](C)N(C)C(=O)/C=C/CN(C)C)C1 [Compound 13-5] | < 10 | < 10 | < 10
6 | CCCNc1nc(Nc2ccc(C#N)cc2)ncc1C#C[C@@H]1CCC[C@H](NC(=O)CN(C)C(=O)/C=C/CN(C)C)C1 [Compound 13-6] | < 10 | < 10 | < 10
7 | CCCNc1nc(Nc2cccc(C#N)c2)ncc1C#C[C@@H]1CCC[C@H](NC(=O)[C@H](C)N(C)C(=O)/C=C/CN(C)C)C1 [Compound 13-7] | < 10 | < 10 | < 10
8 | CCCNc1nc(Nc2cccc(F)c2)ncc1C#C[C@H]1C[C@@H](NC(=O)[C@H](C)N(C)C(=O)/C=C/CN(C)C)C1 [Compound 13-8, (E)-4-(Dimethylamino)-N—((S)-1-(((1S,3R)-3-((2-((3-fluorophenyl)amino)-4-(propylamino)pyrimidin-5-yl)ethynyl)cyclobutyl)amino)-1-oxopropan-2-yl)-N-methyl-2-butenamide] | < 10 | < 10 | < 10
9 | CCCNc1nc(Nc2ccc(C#N)cc2)ncc1C#C[C@H]1C[C@@H](NC(=O)[C@H](C)N(C)C(=O)/C=C/CN(C)C)C1 [Compound 13-9] | < 10 | < 10 | < 10
10 | CCCNc1nc(Nc2cccc(F)c2)ncc1C#C[C@@H]1CC[C@H](NC(=O)[C@H](C)N(C)C(=O)/C=C/CN(C)C)C1 [Compound 13-10] | < 10 | < 10 | < 10
11 | CCCNc1nc(Nc2ccc(C#N)cc2)ncc1C#C[C@@H]1CC[C@H](NC(=O)[C@H](C)N(C)C(=O)/C=C/CN(C)C)C1 [Compound 13-11] | < 10 | < 10 | < 10
12 | CCCNc1nc(Nc2ccc(C#N)cc2)ncc1C#C[C@H]1CC[C@H](NC(=O)[C@H](C)N(C)C(=O)/C=C/CN(C)C)C1 [Compound 13-12] | < 10 | < 10 | < 10
13 | CNc1nc(Nc2cccc(F)c2)ncc1C#C[C@H]1C[C@@H](NC(=O)[C@H](C)N(C)C(=O)/C=C/CN(C)C)C1 [Compound 13-13, (E)-4-(Dimethylamino)-N—((S)-1-(((1S,3R)-3-((2-((3-fluorophenyl)amino)-4-(methylamino)pyrimidin-5-yl)ethynyl)cyclobutyl)amino)-1-oxopropan-2-yl)-N-methyl-2-butenamide] | < 10 | < 10 | < 10
14 | CNc1nc(Nc2ccc(C#N)cc2)ncc1C#C[C@H]1C[C@@H](NC(=O)[C@H](C)N(C)C(=O)/C=C/CN(C)C)C1 [Compound 13-14, (E)-N—((S)-1-(((1S,3R)-3-((2-((4-Cyanophenyl)amino)-4-(methylamino)pyrimidin-5-yl)ethynyl)cyclobutyl)amino)-1-oxopropan-2-yl)-4-(dimethylamino)-N-methyl-2-butenamide] | < 10 | < 10 | < 10
15 | CNc1nc(Nc2cccc(C#N)c2)ncc1C#C[C@H]1C[C@@H](NC(=O)[C@H](C)N(C)C(=O)/C=C/CN(C)C)C1 [Compound 13-15, (E)-N—((S)-1-(((1S,3R)-3-((2-((3-Cyanophenyl)amino)-4-(methylamino)pyrimidin-5-yl)ethynyl)cyclobutyl)amino)-1-oxopropan-2-yl)-4-(dimethylamino)-N-methyl-2-butenamide] | < 10 | < 10 | < 10
16 | CNc1nc(Nc2ccc(OC)c(F)c2)ncc1C#C[C@H]1C[C@@H](NC(=O)[C@H](C)N(C)C(=O)/C=C/CN(C)C)C1 [Compound 13-16, (E)-4-(Dimethylamino)-N—((S)-1-(((1S,3R)-3-((2-((3-fluoro-4-methoxyphenyl)amino)-4-(methylamino)pyrimidin-5-yl)ethynyl)cyclobutyl)amino)-1-oxopropan-2-yl)-N-methyl-2-butenamide] | < 10 | < 10 | < 10
17 | CCCNc1nc(Nc2cccc(C#N)c2)ncc1C#C[C@H]1C[C@@H](NC(=O)[C@H](C)N(C)C(=O)/C=C/CN(C)C)C1 [Compound 13-17] | < 10 | < 10 | < 10

Next, values leading:

Row | IC50 [1] [nM] | IC50 (MV4-11 cells) [nM] | IC50 (Molm-13 cells) [nM] | Structure (SMILES)
18 | < 10 | < 10 | < 10 | CCCNc1nc(Nc2ccc(F)cc2)ncc1C#C[C@H]1C[C@@H](NC(=O)[C@H](C)N(C)C(=O)/C=C/CN(C)C)C1 [Compound 13-18]
19 | < 10 | < 10 | < 10 | CNc1nc(Nc2ccc(F)cc2)ncc1C#C[C@H]1C[C@@H](NC(=O)[C@H](C)N(C)C(=O)/C=C/CN(C)C)C1 [Compound 13-19, (E)-4-(Dimethylamino)-N—((S)-1-(((1S,3R)-3-((2-((4-fluorophenyl)amino)-4-(methylamino)pyrimidin-5-yl)ethynyl)cyclobutyl)amino)-1-oxopropan-2-yl)-N-methyl-2-butenamide]
20 | < 10 | < 10 | < 10 | C[C@@H](C(=O)N[C@H]1C[C@@H](C#Cc2cnc(Nc3cccc(C#N)c3)nc2NC2CC2)C1)N(C)C(=O)/C=C/CN(C)C [Compound 13-20, (E)-N—((S)-1-(((1S,3R)-3-((2-((3-Cyanophenyl)amino)-4-(cyclopropylamino)pyrimidin-5-yl)ethynyl)cyclobutyl)amino)-1-oxopropan-2-yl)-4-(dimethylamino)-N-methyl-2-butenamide]
21 | < 10 | < 10 | < 10 | CNc1ncc(C#C[C@H]2C[C@@H](NC(=O)[C@H](C)N(C)C(=O)/C=C/CN(C)C)C2)c(Nc2ccc(OC)cc2)n1 [Compound 13-21]
22 | < 10 | < 10 | < 10 | CNc1ncc(C#C[C@H]2C[C@@H](NC(=O)[C@H](C)N(C)C(=O)/C=C/CN(C)C)C2)c(Nc2ccc(OC)nc2)n1 [Compound 13-22]
23 | < 10 | < 10 | < 10 | CCCNc1nc(Nc2ccnc(F)c2)ncc1C#C[C@@H]1CCC[C@H](NC(=O)[C@H](C)N(C)C(=O)/C=C/CN(C)C)C1 [Compound 14-1, (E)-4-(dimethylamino)-N—((S)-1-(((1S,3R)-3-((2-((2-fluoropyridin-4-yl)amino)-4-(propylamino)pyrimidin-5-yl)ethynyl)cyclohexyl)amino)-1-oxopropan-2-yl)-N-methyl-2-butenamido]
24 | < 10 | < 10 | < 10 | C[C@@H](C(=O)N[C@H]1CCC[C@@H](C#Cc2cnc(Nc3ccnc(F)c3)nc2NC2CC2)C1)N(C)C(=O)/C=C/CN(C)C [Compound 14-2]
25 | < 10 | < 10 | < 10 | C[C@@H](C(=O)N[C@H]1CCC[C@@H](C#Cc2cnc(Nc3ccnc(F)c3)nc2N2CCOCC2)C1)N(C)C(=O)/C=C/CN(C)C [Compound 14-3]
26 | < 10 | < 10 | < 10 | C[C@@H](C(=O)N[C@H]1CCC[C@@H](C#Cc2cnc(Nc3ccc(C#N)cc3)nc2N2CCOCC2)C1)N(C)C(=O)/C=C/CN(C)C [Compound 14-5]
